In ChEMBL document CHEMBL1132365, “A multisubstrate adduct inhibitor of AICAR transformylase” (J Med Chem, 1999):

What was measured:
[1] = biological target: T1, Bifunctional purine biosynthesis protein ATIC (Homo sapiens, UniProt P31939); experiment: Inhibitory activity against AICAR formyltransferase
[2] = biological target: T1, Bifunctional purine biosynthesis protein ATIC; experiment: Binding affinity towards AICAR formyltransferase
[3] = biological target: AICAR transformylase (Lactobacillus casei); experiment: Inhibitory activity against AICAR formyltransferase

T1 sequence (P31939 whole entry): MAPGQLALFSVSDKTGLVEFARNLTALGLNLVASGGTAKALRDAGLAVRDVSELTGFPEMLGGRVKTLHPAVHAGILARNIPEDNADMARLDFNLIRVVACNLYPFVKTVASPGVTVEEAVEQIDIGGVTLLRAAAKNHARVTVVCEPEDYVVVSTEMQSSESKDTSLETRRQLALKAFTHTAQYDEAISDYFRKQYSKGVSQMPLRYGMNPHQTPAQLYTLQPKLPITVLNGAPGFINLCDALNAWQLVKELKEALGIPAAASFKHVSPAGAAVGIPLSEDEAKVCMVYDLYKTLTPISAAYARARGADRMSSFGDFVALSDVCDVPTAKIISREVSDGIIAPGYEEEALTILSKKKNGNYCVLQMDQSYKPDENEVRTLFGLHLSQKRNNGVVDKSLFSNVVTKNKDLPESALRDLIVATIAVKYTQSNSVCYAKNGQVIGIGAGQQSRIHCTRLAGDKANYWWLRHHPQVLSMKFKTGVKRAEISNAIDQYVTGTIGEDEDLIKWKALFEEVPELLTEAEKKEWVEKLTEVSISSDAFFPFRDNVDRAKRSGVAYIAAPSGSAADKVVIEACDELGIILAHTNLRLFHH

| IC50 [1] [µM] | Kd [2] [µM] | IC50 [3] [µM] | Structure (SMILES) |
| --- | --- | --- | --- |
| 0.125 | 0.02 | – | NC(=O)c1ncn(C2O[C@H](COP(=O)(O)O)[C@@H](O)[C@H]2O)c1/C=C/C(=O)N(CC1=NC2C(=O)NC(N)=NC2C=C1)c1ccc(C(=O)N[C@@H](CCC(=O)O)C(=O)O)cc1 (stereo partly drawn) |
| – | – | 6.4 | Nc1nc(=O)c2nc(CN(C=O)c3ccc(C(=O)N[C@H](CCC(=O)O)C(=O)O)cc3)ccc2[nH]1 |
